Measurements: US10428082B2, “Triazole derivatives of melampomagnolide B and methods of use thereof” (BioVentures, LLC, priority 2016, dated 2019)

What was measured:
Assay in all cases: NCI 60 growth inhibition
Format in all cases: cell-based, human
HOP-62 = details: HOP-62, Non-Small Cell Lung Cancer
OVCAR-3 = details: OVCAR-3, Ovarian Cancer
MDA-MB-231/ATCC = details: Breast Cancer
KM12 = details: KM12, Colon Cancer
SF-539 = details: SF-539, CNS Cancer
OVCAR-8 = details: OVCAR-8, Ovarian Cancer
M14 = details: M14, Melanoma
A498 = details: A498, Renal Cancer
OVCAR-5 = details: OVCAR-5, Ovarian Cancer
SW-620 = details: SW-620, Colon Cancer
RPMI-8226 = details: RPMI-8226, Leukemia
SF-268 = details: SF-268, CNS Cancer
MCF7 = details: MCF7, Breast Cancer
COLO 205 = details: COLO 205, Colon Cancer
HOP-92 = details: HOP-92, Non-Small Cell Lung Cancer
SK-MEL-5 = details: SK-MEL-5, Melanoma
SF-295 = details: SF-295, CNS Cancer
NCI-H226 = details: NCI-H226, Non-Small Cell Lung Cancer
T-47D = details: Breast Cancer
MALME-3M = details: Melanoma
SNB-75 = details: SNB-75, CNS Cancer
TK-10 = details: TK-10, Renal Cancer
NCI-H23 = details: NCI-H23, Non-Small Cell Lung Cancer
MOLT-4 = details: MOLT-4, Leukemia
RXF 393 = details: RXF 393, Renal Cancer
ACHN = details: Renal Cancer
NCI-H460 = details: NCI-H460, Non-Small Cell Lung Cancer
K-562 = details: K-562, Leukemia
OVCAR-4 = details: OVCAR-4, Ovarian Cancer
HL-60(TB) = details: Leukemia
MDA-MB-435 = details: MDA-MB-435, Melanoma
BT-549 = details: BT-549, Breast Cancer
CAKI-1 = details: CAKI-1, Renal Cancer
CCRF-CEM = details: Leukemia
HCT-116 = details: HCT-116, Colon Cancer
SN12C = details: Renal Cancer
SR = details: Leukemia
SK-MEL-2 = details: SK-MEL-2, Melanoma
UO-31 = details: UO-31, Renal Cancer
A549/ATCC = details: Non-Small Cell Lung Cancer

SMILES: C=C1C(=O)O[C@H]2[C@H]1CC/C(Cn1cc(-c3cc(C)c(C)cc3C)nn1)=C\CC[C@@]1(C)O[C@@H]21 [JVM 4-50]
- GI50 (HOP-62; Table 2): 1.77 µM
- GI50 (OVCAR-3; Table 2): 1.03 µM
- GI50 (MDA-MB-231/ATCC; Table 2): 1.11 µM
- GI50 (KM12; Table 2): 2.31 µM
- GI50 (SF-539; Table 2): 1.16 µM
- GI50 (OVCAR-8; Table 2): 0.92 µM
- GI50 (M14; Table 2): 1.5 µM
- GI50 (A498; Table 2): 1.04 µM
- GI50 (OVCAR-5; Table 2): 1.74 µM
- GI50 (SW-620; Table 2): 0.42 µM
- GI50 (RPMI-8226; Table 2): 1.18 µM
- GI50 (SF-268; Table 2): 1.52 µM
- GI50 (MCF7; Table 2): 0.43 µM
- GI50 (COLO 205; Table 2): 0.64 µM
- GI50 (HOP-92; Table 2): 0.43 µM
- GI50 (SK-MEL-5; Table 2): 1.66 µM
- GI50 (SF-295; Table 2): 6.44 µM
- GI50 (NCI-H226; Table 2): 1.46 µM
- GI50 (T-47D; Table 2): 0.53 µM
- GI50 (MALME-3M; Table 2): 1.43 µM
- GI50 (SNB-75; Table 2): 0.52 µM
- GI50 (TK-10; Table 2): 1.46 µM
- GI50 (NCI-H23; Table 2): 1.77 µM
- GI50 (MOLT-4; Table 2): 2.38 µM
- GI50 (RXF 393; Table 2): 0.96 µM
- GI50 (ACHN; Table 2): 1.07 µM
- GI50 (NCI-H460; Table 2): 3.16 µM
- GI50 (K-562; Table 2): 1.39 µM
- GI50 (OVCAR-4; Table 2): 0.7 µM
- GI50 (HL-60(TB); HL-60(TB), Table 2): 0.64 µM
- GI50 (MDA-MB-435; Table 2): 1.41 µM
- GI50 (BT-549; Table 2): 0.75 µM
- GI50 (CAKI-1; Table 2): 1.08 µM
- GI50 (CCRF-CEM; Table 2): 0.45 µM
- GI50 (HCT-116; Table 2): 0.33 µM
- GI50 (SN12C; Table 2): 1.49 µM
- GI50 (SR; Table 2): 1.26 µM
- GI50 (SK-MEL-2; Table 2): 1.75 µM
- GI50 (UO-31; Table 2): 0.52 µM
- GI50 (A549/ATCC; Table 2): 1.73 µM

SMILES: C=C1C(=O)O[C@H]2[C@H]1CC/C(Cn1cc(-c3ccsc3)nn1)=C\CC[C@@]1(C)O[C@@H]21 [JVM 4-53]
- GI50 (HOP-62; Table 3): 4.9 µM
- GI50 (OVCAR-3; Table 3): 1.06 µM
- GI50 (MDA-MB-231/ATCC; Table 3): 1.75 µM
- GI50 (KM12; Table 3): 6.45 µM
- GI50 (SF-539; Table 3): 1.8 µM
- GI50 (OVCAR-8; Table 3): 2.96 µM
- GI50 (M14; Table 3): 1.93 µM
- GI50 (A498; Table 3): 2.65 µM
- GI50 (OVCAR-5; Table 3): 2.29 µM
- GI50 (SW-620; Table 3): 1.32 µM
- GI50 (RPMI-8226; Table 3): 2.45 µM
- GI50 (SF-268; Table 3): 2.53 µM
- GI50 (MCF7; Table 3): 1.68 µM
- GI50 (COLO 205; Table 3): 1.45 µM
- GI50 (HOP-92; Table 3): 1.66 µM
- GI50 (SK-MEL-5; Table 3): 1.83 µM
- GI50 (SF-295; Table 3): 9.61 µM
- GI50 (NCI-H226; Table 3): 2.09 µM
- GI50 (T-47D; Table 3): 2.03 µM
- GI50 (MALME-3M; Table 3): 1.61 µM
- GI50 (SNB-75; Table 3): 3.23 µM
- GI50 (TK-10; Table 3): 1.52 µM
- GI50 (NCI-H23; Table 3): 1.82 µM
- GI50 (MOLT-4; Table 3): 2.59 µM
- GI50 (RXF 393; Table 3): 1.07 µM
- GI50 (ACHN; Table 3): 1.32 µM
- GI50 (NCI-H460; Table 3): 4.71 µM
- GI50 (K-562; Table 3): 2.51 µM
- GI50 (OVCAR-4; Table 3): 2.48 µM
- GI50 (HL-60(TB); HL-60 (TB), Table 3): 1.91 µM
- GI50 (MDA-MB-435; Table 3): 1.85 µM
- GI50 (BT-549; Table 3): 1.8 µM
- GI50 (CAKI-1; Table 3): 1.06 µM
- GI50 (CCRF-CEM; Table 3): 1.63 µM
- GI50 (HCT-116; Table 3): 1.16 µM
- GI50 (SN12C; Table 3): 2.45 µM
- GI50 (SR; Table 3): 0.56 µM
- GI50 (SK-MEL-2; Table 3): 2.27 µM
- GI50 (UO-31; Table 3): 1.35 µM
- GI50 (A549/ATCC; Table 3): 8.61 µM

SMILES: C=C1C(=O)O[C@H]2[C@H]1CC/C(Cn1cc(-c3ccc(N)cc3)nn1)=C\CC[C@@]1(C)O[C@@H]21 [JVM 4-58]
- GI50 (HOP-62; Table 3): 10.2 µM
- GI50 (OVCAR-3; Table 3): 1.62 µM
- GI50 (MDA-MB-231/ATCC; Table 3): 3.45 µM
- GI50 (KM12; Table 3): 11.4 µM
- GI50 (SF-539; Table 3): 2.77 µM
- GI50 (OVCAR-8; Table 3): 3.04 µM
- GI50 (M14; Table 3): 2.97 µM
- GI50 (A498; Table 3): 10.4 µM
- GI50 (OVCAR-5; Table 3): 6.43 µM
- GI50 (SW-620; Table 3): 2.16 µM
- GI50 (RPMI-8226; Table 3): 2.75 µM
- GI50 (SF-268; Table 3): 3.7 µM
- GI50 (MCF7; Table 3): 2.41 µM
- GI50 (COLO 205; Table 3): 1.79 µM
- GI50 (HOP-92; Table 3): 2.13 µM
- GI50 (SK-MEL-5; Table 3): 3.47 µM
- GI50 (SF-295; Table 3): 12.1 µM
- GI50 (NCI-H226; Table 3): 3.34 µM
- GI50 (T-47D; Table 3): 2.23 µM
- GI50 (MALME-3M; Table 3): 2.18 µM
- GI50 (SNB-75; Table 3): 4.98 µM
- GI50 (TK-10; Table 3): 2.25 µM
- GI50 (NCI-H23; Table 3): 2.49 µM
- GI50 (MOLT-4; Table 3): 2.87 µM
- GI50 (RXF 393; Table 3): 1.41 µM
- GI50 (ACHN; Table 3): 2.65 µM
- GI50 (NCI-H460; Table 3): 10.4 µM
- GI50 (K-562; Table 3): 2.99 µM
- GI50 (OVCAR-4; Table 3): 4.9 µM
- GI50 (HL-60(TB); HL-60 (TB), Table 3): 2.23 µM
- GI50 (MDA-MB-435; Table 3): 3.01 µM
- GI50 (BT-549; Table 3): 3.05 µM
- GI50 (CAKI-1; Table 3): 1.77 µM
- GI50 (CCRF-CEM; Table 3): 2 µM
- GI50 (HCT-116; Table 3): 1.55 µM
- GI50 (SN12C; Table 3): 3.48 µM
- GI50 (SR; Table 3): 0.7 µM
- GI50 (SK-MEL-2; Table 3): 10.6 µM
- GI50 (UO-31; Table 3): 1.87 µM
- GI50 (A549/ATCC; Table 3): 11.9 µM
